Experimental data taken from the NIST ThermoML archive (doi:10.1016/j.fluid.2012.08.009).
Numbers after ± are expanded uncertainties.

Conditions: Liquid; for vapor or sublimation pressure: Ebulliometric method (Recirculating still); for Normal boiling temperature: Siwoloboff method

CCO[Si](C)(OCC)c1cccc(C)c1 [diethoxy(methyl)(m-tolyl)silane]
Conditions	Normal boiling temperature [°C]	vapor or sublimation pressure [kPa]
–	235.8 ± 1.6	–
391.91 K	–	2 ± 0.04
400.12 K	–	3 ± 0.05
406.47 K	–	4 ± 0.07
411.84 K	–	5 ± 0.09
416.3 K	–	6 ± 0.11
420.23 K	–	7 ± 0.13
426.81 K	–	9 ± 0.16
432.31 K	–	11 ± 0.2
439.13 K	–	14 ± 0.25
444.83 K	–	17 ± 0.31
449.84 K	–	20 ± 0.36
454.26 K	–	23 ± 0.41
458.23 K	–	26 ± 0.47
461.73 K	–	29 ± 0.52
465.1 K	–	32 ± 0.58
468.22 K	–	35 ± 0.63
471.02 K	–	38 ± 0.68
473.69 K	–	41 ± 0.74
476.21 K	–	44 ± 0.79
478.56 K	–	47 ± 0.85
480.85 K	–	50 ± 0.9
483.08 K	–	53 ± 0.95
485.67 K	–	57 ± 1
488.08 K	–	61 ± 1.1

CCO[Si](C)(OCC)c1ccc(C)cc1 [diethoxy(methyl)(p-tolyl)silane]
Conditions	Normal boiling temperature [°C]	vapor or sublimation pressure [kPa]
–	239.57 ± 1.6	–
394.65 K	–	2 ± 0.04
402.86 K	–	3 ± 0.05
409.39 K	–	4 ± 0.07
414.72 K	–	5 ± 0.09
419.19 K	–	6 ± 0.11
423.25 K	–	7 ± 0.13
429.82 K	–	9 ± 0.16
435.35 K	–	11 ± 0.2
442.33 K	–	14 ± 0.25
448.16 K	–	17 ± 0.31
453.16 K	–	20 ± 0.36
457.61 K	–	23 ± 0.41
461.72 K	–	26 ± 0.47
465.36 K	–	29 ± 0.52
468.68 K	–	32 ± 0.58
471.81 K	–	35 ± 0.63
474.73 K	–	38 ± 0.68
477.27 K	–	41 ± 0.74
479.82 K	–	44 ± 0.79
482.24 K	–	47 ± 0.85
484.62 K	–	50 ± 0.9
486.87 K	–	53 ± 0.95

CN1CCCC1=O [N-methylpyrrolidone]
Conditions	Normal boiling temperature [°C]	vapor or sublimation pressure [kPa]
–	202.14 ± 1.6	–
380.76 K	–	4.742 ± 0.086
388.05 K	–	6.361 ± 0.12
400.39 K	–	10.29 ± 0.19
411.34 K	–	15.22 ± 0.27
420.9 K	–	20.97 ± 0.38
432.23 K	–	30.08 ± 0.54
441.78 K	–	39.96 ± 0.72
451.08 K	–	52.18 ± 0.94
457.44 K	–	62.11 ± 1.1
475.79 K	–	99.4 ± 1.8

CCO[Si](C)(OCC)c1ccccc1C [diethoxy(methyl)(o-tolyl)silane]
Conditions	Normal boiling temperature [°C]	vapor or sublimation pressure [kPa]
–	239.83 ± 1.6	–
393.45 K	–	2 ± 0.04
401.5 K	–	3 ± 0.05
407.98 K	–	4 ± 0.07
413.33 K	–	5 ± 0.09
417.79 K	–	6 ± 0.11
421.8 K	–	7 ± 0.13
431.54 K	–	10 ± 0.18
439.05 K	–	13 ± 0.23
445.46 K	–	16 ± 0.29
450.67 K	–	19 ± 0.34
455.4 K	–	22 ± 0.4
459.55 K	–	25 ± 0.45
463.3 K	–	28 ± 0.5
466.73 K	–	31 ± 0.56
469.94 K	–	34 ± 0.61
472.92 K	–	37 ± 0.67
475.72 K	–	40 ± 0.72
478.35 K	–	43 ± 0.77
480.89 K	–	46 ± 0.83
483.26 K	–	49 ± 0.88
